Literature values, collected in US8058260B2, “2′-C-methyl-ribofuranosyl cytidine prodrugs, pharmaceutical compositions and uses thereof” (XenoPort, Inc., priority 2006, dated 2011).
Where two headings read alike, the source gives them in different places.

Legend:
[1] = tested on: HCV; conditions: clinical evaluation as a treatment for HCV
[2] = human, in vivo
[3] = target: HCV NS5B polymerase (Hepatitis C virus genotype 1b, UniProt P26663)
Sequence of HCV NS5B polymerase (P26663 2420-3010): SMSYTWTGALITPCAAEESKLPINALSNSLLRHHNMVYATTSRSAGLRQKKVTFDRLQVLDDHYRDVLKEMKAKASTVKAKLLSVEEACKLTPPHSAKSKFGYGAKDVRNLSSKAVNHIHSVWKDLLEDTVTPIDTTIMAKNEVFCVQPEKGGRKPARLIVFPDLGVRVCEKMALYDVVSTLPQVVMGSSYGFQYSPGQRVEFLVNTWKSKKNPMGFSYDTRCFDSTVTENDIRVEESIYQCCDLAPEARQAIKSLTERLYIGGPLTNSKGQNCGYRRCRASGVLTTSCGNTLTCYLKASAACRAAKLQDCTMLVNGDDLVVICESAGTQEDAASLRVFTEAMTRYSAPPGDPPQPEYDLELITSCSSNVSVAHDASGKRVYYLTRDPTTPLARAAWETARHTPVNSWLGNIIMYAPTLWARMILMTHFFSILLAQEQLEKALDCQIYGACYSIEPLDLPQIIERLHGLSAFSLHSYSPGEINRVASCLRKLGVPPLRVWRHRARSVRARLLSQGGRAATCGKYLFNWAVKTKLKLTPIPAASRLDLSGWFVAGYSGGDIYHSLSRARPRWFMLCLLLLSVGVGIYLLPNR

SMILES: CC(C)[C@H](N)C(=O)O[C@@H]1[C@@H](CO)O[C@@H](n2ccc(N)nc2=O)[C@]1(C)O [NM 283, 3′-O-L-valinyl ester of β-D-2′-C-methyl-ribofuranosyl cytidine]
- antiviral activity [1]: significant antiviral activity
- bioavailability [2]: good bioavailability
- gastrointestinal toxicity / side-effects (in vivo, po): gastrointestinal side-effects

SMILES: C[C@@]1(O)[C@H](O)[C@@H](CO)O[C@H]1n1ccc(N)nc1=O [β-D-2′-C-methyl-ribofuranosyl cytidine]
- gastrointestinal toxicity / side-effects (oral administration, nausea, vomiting, diarrhea in some patients): gastrointestinal (GI) toxicity
- inhibitory activity against the HCV NS5B polymerase [3]: potent inhibitory activity
